This note sets out measurements from US10981932B2, “Macrocyclic indole derivatives” (Bayer Aktiengesellschaft, priority 2016, dated 2021).

In series [1] the test system is SUDHL10. Put plainly: Induction of cytotoxicity (CellTiter-Glo, 5 h), SUDHL10. Background: Cellular ATP, detected with luciferase, serves as a proxy for viable cell number.
Series [2] concerns SUDHL5. Put plainly: Anti-proliferative effect (CellTiter-Glo, 72 h), SUDHL5. The series is classed as cell-based. The settings on record: SUDHL5 cells, antiproliferation, 72 h incubation, median, read-out: Antiproli SUDHL5 [M] (median). A digest of the protocol: (§1)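 Viable cells quantified with CellTiter-Glo after 72 h at 37 °C; rim wells excluded; day 0 plate as baseline.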
Series [3] concerns SUDHL10. The series can be described thus: Anti-proliferative effect (CellTiter-Glo, 72 h), SUDHL10. The series is classed as cell-based. The settings on record: SUDHL10 cells, antiproliferation, 72 h incubation, median, read-out: Antiproli SUDHL10 [M] (median). A digest of the protocol: as §1
The test system of series [4] is SUDHL5. The series can be described thus: Induction of cytotoxicity (CellTiter-Glo, 5 h), SUDHL5.
Series [5] concerns SUDHL5. The series can be described thus: Induction of caspase-3/7 activity (Caspase-Glo 3/7), SUDHL5. The series is classed as cell-based. As to conditions: caspase-3/7 induction, SUDHL5 cells, 3 h treatment, median. Put shortly:
(§2)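 Caspase-Glo 3/7 luminescence, 3 h compound exposure, 37 °C, humidified. Minus medium-only blank. EC50 fit: C0=1, plateau = reference max induction.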

Another series addresses MCL-1 (Homo sapiens, UniProt Q07820). The series can be described thus: Protein-protein interaction assay MCL-1/Noxa BH3 peptide (MCL-1 assay), TR-FRET. In kind it is binding. The settings on record: MBP-MCL-1 / Noxa BH3-derived peptide, median. Put shortly:
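Displacement of the biotinylated Noxa BH3 peptide from MBP-tagged human MCL-1 (1 nM) is detected by time-resolved FRET. Compounds are tested in duplicate across eleven concentrations up to 20 μM, incubated 1 h at 22 °C and overnight at 4 °C, and IC50 is fitted with a four-parameter equation.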
(In TR-FRET formats the signal depends on donor and acceptor labels being close together.)

A further series relates to MV-4-11. The series can be described thus: Anti-proliferative effect (CellTiter-Glo, 72 h), MV-4-11. The series is classed as cell-based. As to conditions: Homo sapiens, MV4-11, 72 h, MV-4-11 cells, median, read-out: IC50 antiproliferation assay MV-4-11 [M] (median). A digest of the protocol:
as §1

The test system of another series is A2780. Put plainly: Anti-proliferative effect (CellTiter-Glo, 72 h), A2780. The settings on record: A2780 cells, median, read-out: IC50 antiproliferation assay A2780 [M] (median). In kind it is cell-based. Put shortly:
as §1

Series [6] concerns SUDHL10. Put plainly: Induction of caspase-3/7 activity (Caspase-Glo 3/7), SUDHL10. In kind it is cell-based. As to conditions: caspase-3/7 induction, SUDHL10 cells, 3 h treatment, median. Put shortly: as §2
Setting [7] is: read-out: Cytotox SUDHL10 [M] (median), SUDHL10 cells, cytotoxicity induction, CellTiter-Glo, 5 h incubation, median.
[8] abbreviates: read-out: Cytotox SUDHL5 [M] (median), SUDHL5 cells, cytotoxicity induction, CellTiter-Glo, 5 h incubation, median.
[9] abbreviates: Homo sapiens, SU-DHL10, 5 h, read-out: Cytotox SUDHL10 [M] (median), SUDHL10 cells, cytotoxicity induction, CellTiter-Glo, 5 h incubation, median.

Values joined by “and” are separate entries in the source; they are usually repeats but may differ in a detail not shown here. Equal entries are not always repeated. Structures can show the parent of a compound that is named as a salt. Where two headings read alike, the source gives them in different places.

Chain of MCL-1 (Q07820 whole entry): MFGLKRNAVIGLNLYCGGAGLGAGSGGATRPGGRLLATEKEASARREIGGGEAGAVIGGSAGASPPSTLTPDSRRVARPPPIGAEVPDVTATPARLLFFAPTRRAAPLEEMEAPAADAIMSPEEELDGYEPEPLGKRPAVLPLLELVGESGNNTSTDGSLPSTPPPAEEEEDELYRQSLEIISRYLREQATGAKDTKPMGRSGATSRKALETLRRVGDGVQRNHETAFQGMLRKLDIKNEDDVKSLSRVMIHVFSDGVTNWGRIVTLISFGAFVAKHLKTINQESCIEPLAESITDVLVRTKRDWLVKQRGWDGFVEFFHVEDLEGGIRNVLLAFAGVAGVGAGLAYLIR

As usually defined, the EC50 is the midpoint of the concentration-response curve. Regarding `Cn1nc(COc2cncnc2)c2c1COCCCCn1c(C(=O)O)c(CCCOc3cccc4ccccc34)c3cccc-2c31` (single isomer, unassigned) [Example 212, 1-methyl-7-[3-(naphthalen-1-yloxy)propyl]-3-[(pyrimidin-5-yloxy)methyl]-1,10,11,12,13,15-hexahydropyrazolo[4′,3′:9,10][1,6]oxazacycloundecino[8,7,6-hi]indole-8-carboxylic Acid], the IC50 in the series on SUDHL10 [1] (setting [7]) is 2.02e-05 M; in the series on SUDHL5 [2], 5.11e-06 M; with SUDHL10 [3] it was 3.63e-06 M; in the series with SUDHL5 [4] (setting [8]) it was 6.68e-06 M; against MCL-1 it was 0.00637 µM; in the series with MV-4-11, 5e-06 M. For the same compound, the IC50 in the series with A2780 is 2.15e-05 M and > 3.3e-05 M. The EC50 in the series on SUDHL5 [5] worked out at 7.34 µM; in the series on SUDHL10 [6] it was 19.9 µM.

With `O=C(O)c1c(CCCOc2cccc3ccccc23)c2cccc3c2n1CCCCOCc1nn2c(c1-3)COCC2` (single isomer, unassigned) [Example 252, 1-[3-(naphthalen-1-yloxy)propyl]-4,5,6,7,12,13-hexahydro-9H,15H-[1,4]oxazino[4″,3″:1′,5′]pyrazolo[4′,3′:9,10][1,6]oxazacycloundecino[8,7,6-hi]indole-2-carboxylic acid-N-ethylethanamine Salt], the IC50 with SUDHL10 [1] (setting [7]) was found to be 2.09e-05 M; with SUDHL5 [2] it was 8.78e-06 M; in the series on SUDHL10 [3], 6.31e-06 M; with SUDHL5 [4] (setting [8]), 5.17e-06 M; on MCL-1 it was 0.0037 µM; in the series with MV-4-11, 1.04e-05 M. Moreover, in the series on A2780, the IC50 was 3.16e-05 M and > 3.3e-05 M. In addition, the EC50 stood at 4.79 µM in the series with SUDHL5 [5] and 17.2 µM in the series with SUDHL10 [6].

For `Cc1nn(C)c2c1-c1cccc3c(CCCOc4cccc5c4CCCC5)c(C(=O)O)n(c13)CCCCOC2` (single isomer, unassigned; enantiomer 1) [Example 007, 1,3-dimethyl-7-[3-(5,6,7,8-tetrahydronaphthalen-1-yloxy)propyl]-1,10,11,12,13,15-hexahydropyrazolo[4′,3′:9,10][1,6]oxazacycloundecino[8,7,6-hi]indole-8-carboxylic acid-N-ethylethanamine Salt (Enantiomer 1)], the IC50 in the series on SUDHL10 [1] (setting [7]) was 6e-06 M; in the series with SUDHL5 [2] it was 5.16e-06 M; in the series on SUDHL10 [3], 3.1e-06 M; with SUDHL5 [4] (setting [8]) it was 3.54e-06 M; against MCL-1, 0.000987 µM; in the series with MV-4-11, 8.03e-06 M. Moreover, the IC50 with A2780 is 3.25e-05 M; in the series on A2780 (Homo sapiens, A2780, 72 h) it was > 3.3e-05 M. In addition, the values for the EC50 in the series on SUDHL5 [5] and with SUDHL10 [6] were 2.85 µM and 12 µM, respectively.

In the case of `Cc1nn(C)c2c1-c1cccc3c(CCCOc4cccc5ccccc45)c(C(=O)O)n(c13)CCCOC2` (single isomer, unassigned; enantiomer 1) [Example 044, 9,11-dimethyl-1-[3-(naphthalen-1-yloxy)propyl]-5,6,8,9-tetrahydro-4H-pyrazolo[4′,3′:8,9][1,5]oxazecino[7,6,5-h]indole-2-carboxylic acid-N-ethylethanamine Salt (Enantiomer 1)], the IC50 was 2.34e-05 M in the series on SUDHL10 [1] (setting [9]); 7.61e-06 M in the series with SUDHL5 [2] (Homo sapiens, SU-DHL-5, 72 h); 1.1e-05 M in the series on SUDHL10 [3] (Homo sapiens, SU-DHL10, 72 h); 6.01e-06 M with SUDHL5 [4] (setting [8]); 0.00357 µM against MCL-1; 4.1e-06 M in the series with MV-4-11. Moreover, the IC50 in the series on A2780 (Homo sapiens, A2780, 72 h) was > 3.3e-05 M. Also, the EC50 was 6.63 µM with SUDHL5 [5] and 25.3 µM in the series with SUDHL10 [6] (Homo sapiens, SU-DHL10, 3 h).

Consider `Cc1nn(CCN2CCOCC2)c2c1-c1cccc3c(CCCOc4cccc5ccccc45)c(C(=O)O)n(c13)CCCCOC2` (single isomer, unassigned; enantiomer 1) [Example 096, 3-methyl-1-[2-(morpholin-4-yl)ethyl]-7-[3-(naphthalen-1-yloxy)propyl]-1,10,11,1213,15-hexahydropyrazolo[4′,3′:9,10][1,6]oxazacycloundecino[8,7,6-hi]indole-8-carboxylic acid-N-ethylethanamine Salt (Enantiomer 1)], for which the IC50 in the series on SUDHL10 [1] (setting [7]) is 3.7e-06 M; with SUDHL5 [2], 2.32e-06 M; in the series on SUDHL10 [3] (Homo sapiens, SU-DHL10, 72 h), 7.13e-06 M; in the series with SUDHL5 [4] (setting [8]), 1.09e-06 M; against MCL-1, 0.00136 µM; in the series on MV-4-11, 1.45e-06 M. In addition, the IC50 in the series on A2780 (Homo sapiens, A2780, 72 h) worked out at 2.79e-05 M. Besides, the values for the EC50 with SUDHL5 [5] and in the series with SUDHL10 [6] were 1.34 µM and 3.97 µM, respectively.

`Cc1nn(CC(F)(F)F)c2c1-c1cccc3c(CCCOc4cccc5ccccc45)c(C(=O)O)n(c13)CCCCOC2` (single isomer, unassigned; enantiomer 1) [Example 110, 3-methyl-7-[3-(naphthalen-1-yloxy)propyl]-1-(2,2,2-trifluoroethyl)-1,10,11,12,13,15-hexahydropyrazolo[4′,3′:9,10][1,6]oxazacycloundecino[8,7,6-hi]indole-8-carboxylic acid-N-ethylethanamine Salt (Enantiomer 1)]: the IC50 was found to be 2.37e-05 M in the series on SUDHL10 [1] (setting [9]); 1.24e-05 M in the series with SUDHL5 [2]; 1.72e-05 M with SUDHL10 [3]; 6.54e-06 M with SUDHL5 [4] (setting [8]); 0.0124 µM at MCL-1; 1.33e-05 M in the series with MV-4-11. The IC50 with A2780 (Homo sapiens, A2780, 72 h) is > 3.3e-05 M. Further, the EC50 came out at 8.06 µM in the series with SUDHL5 [5] and 26 µM in the series with SUDHL10 [6] (Homo sapiens, SU-DHL10, 3 h).

Take `Cn1nc(CN2CCOCC2)c2c1COCC=CCn1c(C(=O)O)c(CCCOc3cccc4ccccc34)c3cccc-2c31` (single isomer, unassigned; enantiomer 1) [Example 133, (E/Z)-1-methyl-3-(morpholin-4-ylmethyl)-7-[3-(naphthalen-1-yloxy)propyl]-1,10,13,15-tetrahydropyrazolo[4′,3′:9,10][1,6]oxazacycloundecino[8,7,6-hi]indole-8-carboxylic acid-N-ethylethanamine Salt (Enantiomer 1)]: the IC50 in the series with SUDHL10 [1] (setting [9]) amounted to 2.95e-05 M; in the series on SUDHL5 [2] (Homo sapiens, SU-DHL-5, 72 h) it was 1.62e-05 M; in the series on SUDHL10 [3], 4.25e-06 M; with SUDHL5 [4] (Homo sapiens, SU-DHL-5, 5 h, read-out: Cytotox SUDHL5 [M] (median), SUDHL5 cells, cytotoxicity induction, CellTiter-Glo, 5 h incubation, median), 1.84e-05 M; against MCL-1, 0.0186 µM; in the series on MV-4-11 it was 6.84e-06 M. In the series on A2780 (Homo sapiens, A2780, 72 h), the IC50 amounted to 1.51e-05 M. Also, the EC50 in the series with SUDHL5 [5] (Homo sapiens, SU-DHL-5, 3 h) stood at 17.6 µM; with SUDHL10 [6] (Homo sapiens, SU-DHL10, 3 h) it was 32.8 µM.

As for `Cn1nc(CN2CC(F)(F)C2)c2c1COCCCCn1c(C(=O)O)c(CCCOc3cccc4ccccc34)c3cccc-2c31` (single isomer, unassigned; enantiomer 1) [Example 181, 3-[(3,3-difluoroazetidin-1-yl)methyl]-1-methyl-7-[3-(naphthalen-1-yloxy)propyl]-1,10,11,12,13,15-hexahydropyrazolo[4′,3′:9,10][1,6]oxazacycloundecino[8,7,6-hi]indole-8-carboxylic acid-N-ethylethanamine Salt (Enantiomer 1)], the IC50 in the series with SUDHL10 [1] (setting [9]) was found to be 1.67e-05 M; in the series on SUDHL5 [2] it was 6.23e-06 M; in the series on SUDHL10 [3] (Homo sapiens, SU-DHL10, 72 h), 8.23e-06 M; in the series on SUDHL5 [4] (setting [8]), 6.68e-06 M; against MCL-1, 0.00777 µM; with MV-4-11, 1.8e-05 M. Also, the IC50 in the series on A2780 (Homo sapiens, A2780, 72 h) was 2.46e-05 M. Besides, the EC50 in the series with SUDHL5 [5] was found to be 5.11 µM; in the series with SUDHL10 [6], 16.1 µM.
